Laboratory results: patent US4734418A, “Quinazoline compounds and antihypertensives” (priority 1984, dated 1988)
Where two headings read alike, the source gives them in different places.

Test system: Spontaneously Hypertensive Rats
Assay: Test 1: antihypertensive effects (systolic tail artery blood pressure) and heart rate in spontaneously hypertensive rats, oral
Type: in vivo, rat (male, SHR)
Details: for change in vivo at 1 mg/kg / change in vivo at 10 mg/kg: Rattus norvegicus; for change in vivo at 1 mg/kg / Change (%) in heart rate: SHR; for Change (%) in heart rate: maximum value; for change in vivo at 10 mg/kg: po
Description: The antihypertensive effects of the certain compounds of this invention were studied in the following manner.
Among male, spontaneously hypertensive rats (SHRs) of 20 weeks of age or older and 350-430 g heavy all of which had developed hypertension, those having systolic blood pressures of 180 mmHg or higher were used in groups, each of which was constituted of 3-4 of the rats. […] Besides, heart rates were also measured simultaneously. The compounds were each dissolved or suspended in a 0.5% methylcellulose solution and then administered orally.
*All administered orally at a dosage of 1 mg/Kg except for the compounds
**Each percent change in heart rate is indicated by the corresponding

[1] = oral 1 mg/Kg, 1 hour, read-out: Antihypertensive effects, change (%) in blood pressure, 1 hour later
[2] = oral 1 mg/Kg, 3 hours, read-out: Antihypertensive effects, change (%) in blood pressure, 3 hours later
[3] = oral 1 mg/Kg, 6 hours, read-out: Antihypertensive effects, change (%) in blood pressure, 6 hours later
[4] = oral 1 mg/Kg, 24 hours, read-out: Antihypertensive effects, change (%) in blood pressure, 24 hours later

| Compound | change in vivo at 1 mg/kg [1] [%] | change in vivo at 1 mg/kg [2] [%] | change in vivo at 1 mg/kg [3] [%] | change in vivo at 1 mg/kg [4] [%] | Change (%) in heart rate (oral 1 mg/Kg) | change in vivo at 10 mg/kg (1 h, read-out: Antihypertensive effects, change (%) in blood pressure, 1 hour later) [%] | change in vivo at 10 mg/kg (3 h, read-out: Antihypertensive effects, change (%) in blood pressure, 3 hours later) [%] | change in vivo at 10 mg/kg (6 h, read-out: Antihypertensive effects, change (%) in blood pressure, 6 hours later) [%] | change in vivo at 10 mg/kg (24 h, read-out: Antihypertensive effects, change (%) in blood pressure, 24 hours later) [%] | Change (%) in heart rate (oral 10 mg/Kg) |
| --- | --- | --- | --- | --- | --- | --- | --- | --- | --- | --- |
| COc1cc2nc(N3CCN(c4ccc5ccccc5n4)CC3)nc(N)c2cc1OC.Cl [Example 94, 4-Amino-6,7-dimethoxy-2-(4-(2-quinolyl)piperazino)quinazoline hydrochloride] | -0.5 | -12.7 | -22.1 | -5.4 | +5.4% |  |  |  |  |  |
| COc1cc2nc(N3CCN(c4ncc(C(=O)NCc5ccccc5)c(C)n4)CC3)nc(N)c2cc1OC [Example 44] | 9.1 | 0 | -4 | 0 | +7.9% |  |  |  |  |  |
| CCCCN1Cc2nc(N3CCN(c4nc(N)c5cc(OC)c(OC)cc5n4)CC3)ncc2C1=O [Example 27] | -5.4 | -17.6 | -21 | -2.4 | +8.3% |  |  |  |  |  |
| CCOC(=O)c1cnc(N2CCN(c3nc(N)c4cc(OC)c(OC)cc4n3)CC2)nc1N(CC)CC [Example 58] | -7.4 | -17.6 | -22.5 | -9.8 | +9.8% |  |  |  |  |  |
| CCNc1nc(N2CCN(c3nc(N)c4cc(OC)c(OC)cc4n3)CC2)ncc1C(=O)N(CC)CC [Example 67] | -21.4 | -28.6 | -38.4 | -16.7 | +7.4% |  |  |  |  |  |
| COCCn1ccc2nc(N3CCN(c4nc(N)c5cc(OC)c(OC)cc5n4)CC3)ncc2c1=O [Example 8] | -0.5 | -9.5 | -11.4 | -4 | +5.2% |  |  |  |  |  |
| CCN(CC)C(=O)c1cnc(N2CCN(c3nc(N)c4cc(OC)c(OC)cc4n3)CC2)nc1C [Example 42] | -16.5 | -19.5 | -24 | -7.5 | +5.2% |  |  |  |  |  |
| CCN(CC)C(=O)c1cnc(N2CCN(c3nc(N)c4cc(OC)c(OC)cc4n3)CC2)nc1SC [Example 53] | -27.9 | -31.3 | -36.1 | -12 | +25.7% |  |  |  |  |  |
| CCOC(=O)c1cnc(N2CCN(c3nc(N)c4cc(OC)c(OC)cc4n3)CC2)nc1NC(C)C [Example 59] | -10.1 | -23.9 | -30.6 | -12.4 | +5.7% |  |  |  |  |  |
| CCNc1nc(N2CCN(c3nc(N)c4cc(OC)c(OC)cc4n3)CC2)ncc1C(=O)N(C)C [Example 79] | -27.9 | -33.7 | -45.2 | -21.2 | +22.3% |  |  |  |  |  |
| COc1cc2nc(N3CCN(c4ncc(C(=O)Nc5ccccc5)c(C)n4)CC3)nc(N)c2cc1OC [Example 43] | 4.5 | 0.5 | -6.5 | -9.5 | +5.7% |  |  |  |  |  |
| COc1cc2nc(N3CCN(c4ncc5c(=O)[nH]ccc5n4)CC3)nc(N)c2cc1OC [Example 3] | -2.5 | -8 | -15.1 | -5 | +7.1% |  |  |  |  |  |
| COc1cc2nc(N3CCN(c4ncc5c(n4)CCCC5=O)CC3)nc(N)c2cc1OC [Example 33] | -20.4 | -27 | -32.1 | -9.7 | +17.5% |  |  |  |  |  |
| CCN(CC)C(=O)c1cnc(N2CCN(c3nc(N)c4cc(OC)c(OC)cc4n3)CC2)nc1NC [Example 77] | -31 | -32.9 | -36.2 | -13.8 | +25.1% |  |  |  |  |  |
| COc1cc2nc(N3CCN(c4ncc([N+](=O)[O-])cc4[N+](=O)[O-])CC3)nc(N)c2cc1OC [Example 92] |  |  |  |  |  | 1.4 | -3.3 | -9.4 | -6.1 | +8.5% |
| COc1cc2nc(N3CCN(c4ncc5c(n4)CN(C4CCCCC4)C5=O)CC3)nc(N)c2cc1OC [Example 91] | -4 | -8 | -12.9 | -2.5 | +8.2% |  |  |  |  |  |
| CCNc1nc(N2CCN(c3nc(N)c4cc(OC)c(OC)cc4n3)CC2)ncc1C(=O)OCC [Example 57] | -10.4 | -18.9 | -27.9 | -9 | +4.3% |  |  |  |  |  |
| COc1cc2nc(N3CCN(c4ncc5c(n4)CC(c4ccccc4)NC5=O)CC3)nc(N)c2cc1OC (stereo not shown) [Example 19] | -2.4 | -10.1 | -11.1 | -2.9 | +2.9% |  |  |  |  |  |
| COc1cc2nc(N3CCN(c4nc(N(C)C)c5cc(OC)c(OC)cc5n4)CC3)nc(N)c2cc1OC [Example 73] | -0.5 | 0 | -7 | -8 | +4.3% |  |  |  |  |  |
| CCOc1nccc2nc(N3CCN(c4nc(N)c5cc(OC)c(OC)cc5n4)CC3)ncc12 [Example 74] | -0.5 | -14.1 | -23.3 | -12.1 | +9.0% |  |  |  |  |  |
| CNc1nc(N2CCN(c3nc(N)c4cc(OC)c(OC)cc4n3)CC2)ncc1C(=O)N(C)C [Example 69] | -12.9 | -22.7 | -24.7 | -4.6 | +7.4% |  |  |  |  |  |
| CCn1cc(C#N)c2nc(N3CCN(c4nc(N)c5cc(OC)c(OC)cc5n4)CC3)ncc2c1=O [Example 13] | -1 | -3.9 |  | -3.9 | +7.4% |  |  |  |  |  |
| CCCn1ccc2nc(N3CCN(c4nc(N)c5cc(OC)c(OC)cc5n4)CC3)ncc2c1=O [Example 5] | 0 | -6.3 | -13.2 | -6.3 | +2.6% |  |  |  |  |  |
| COc1cc2nc(N3CCN(c4ncc5c(=O)n(C)[nH]c5n4)CC3)nc(N)c2cc1OC.Cl [Example 83, 4-Amino-6,7-dimethoxy-2-(4-(2-methyl-3-oxo-2,3-dihydro-1H-pyrazolo[3,4-d]pyrimidine-6-yl)piperazino)quinazoline hydrochloride] | -3.9 | -4.4 | -5.3 | -0.5 | +5.6% |  |  |  |  |  |
| CCNC(=O)c1cnc(N2CCN(c3nc(N)c4cc(OC)c(OC)cc4n3)CC2)nc1N [Example 64] | -1.4 | -9.6 | -13.9 | -1.9 | +9.9% |  |  |  |  |  |
